Where “and” joins values, the source holds several entries; their conditions need not be identical. Equal entries are not always repeated. Where two headings read alike, the source gives them in different places.
Experiments:
[1] = Bioavailability study: pharmacokinetics after single intravenous or oral dose in mouse; format: in vivo; conditions: for half-life: CD-1, mouse, plasma, 1 mg/kg
Experimental: Studies were conducted to evaluate the pharmacokinetic profiles of Example 25 herein and Example 2 in WO 2019/040550 after single intravenous or oral dose in mouse. CD-1 mice (male) were obtained from Charles River Laboratories (Wilmington, MA).
The pharmacokinetics of Example 25 herein and Example 2 in WO 2019/040550 were evaluated following single 1 mg/kg intravenous or oral doses in mouse. Example 25 herein and Example 2 in WO 2019/040550 were prepared as a solution in DMSO: Tween 80: PEG-400: Dextrose 5% in Water (5:5:20:70, v/v) for the IV and oral dose mouse studies. The intravenous dose was administered as a slow bolus to the penile vein under isoflurane anesthesia. The oral doses were administrated by gavage. Serial blood samples were obtained […], 0.25, 0.5, 1.0, 4, 6, 9, 12, 24, 32 and 48 hours post dosing and […]. Plasma was separated by centrifugation and stored frozen (<−15° C.) until analysis.
HPLC-MS/MS bioanalytical methods were utilized for the quantitation of Example 25 herein and Example 2 in WO 2019/040550 concentration in plasma. The analytical methods used protein precipitation to extract compound from plasma. All samples were combined with a minimum two volume equivalents of organic solvent containing internal standard, vortexed and then centrifuged to pellet the proteins. Supernatants were used for subsequent analysis by liquid chromatography-tandem mass spectrometry (LC-MS/MS). Studies involving quantitative analysis employed spiked standards in plasma that were processed simultaneously with the samples.
Analytes were separated using reverse phase chromatography on a C8 or C18 column prior to analysis on an API5500™ (or higher) mass spectrometer with a Turbo-Ion Spray source. Peak areas were determined using Sciex Analyst™ 1.6 (or higher) software or Sound Analytics DiscoveryQuant™ 2.0 (or higher) software. Actual concentrations (when required) were calculated by regression analysis of the peak area ratio (parent/internal standard) of the spiked standards versus concentrations.
Peak plasma concentrations (Cmax) and the time to peak plasma concentration (Tmax) were determined directly from the plasma concentration data for each animal. The compound plasma concentration data were submitted to multi-exponential curve fitting using WinNonlin software. The area under the plasma concentration-time curve from 0 to t hours after dosing (AUC0-t, t=time of the last measurable plasma concentration) was calculated using the linear trapezoidal rule. The residual area extrapolated to infinity, determined as the final measured plasma concentration (Ct) divided by the terminal plasma elimination rate constant (β), was added to the AUC0-t to produce the total area under the curve (AUC0-∞). The apparent total plasma clearance (CLp) was calculated by dividing the administered dose by the AUC0-∞. Half-life (t1/2) was determined with the following calculation: t1/2=ln (2)/elimination rate constant. The initial volume of distribution (Vc) was calculated as the dose divided by the extrapolated concentration at time=0 (C0). The volume of distribution at steady state, Vss, was estimated as a product of the total plasma clearance (CLp) and the mean residence time (MRT); the terminal-phase volume of distribution, Vβ, was derived from the total plasma clearance value (CLp) divided by the terminal plasma elimination rate constant (β). Oral bioavailability (F) was calculated as the dose-normalized AUC0-∞ (AUC0-∞/D) from the oral dose divided by the corresponding dose normalized AUC0-∞ from intravenous dosing.

Bcl-2 protein = Bcl-2 protein (Homo sapiens (Human), UniProt P10415); assay: TR-FRET binding assay, Bcl-2; conditions: F-Bak peptide probe, GST-Bcl-2
Bcl-2 protein, sequence (P10415 other isoform, or with tags, fused parts or gaps): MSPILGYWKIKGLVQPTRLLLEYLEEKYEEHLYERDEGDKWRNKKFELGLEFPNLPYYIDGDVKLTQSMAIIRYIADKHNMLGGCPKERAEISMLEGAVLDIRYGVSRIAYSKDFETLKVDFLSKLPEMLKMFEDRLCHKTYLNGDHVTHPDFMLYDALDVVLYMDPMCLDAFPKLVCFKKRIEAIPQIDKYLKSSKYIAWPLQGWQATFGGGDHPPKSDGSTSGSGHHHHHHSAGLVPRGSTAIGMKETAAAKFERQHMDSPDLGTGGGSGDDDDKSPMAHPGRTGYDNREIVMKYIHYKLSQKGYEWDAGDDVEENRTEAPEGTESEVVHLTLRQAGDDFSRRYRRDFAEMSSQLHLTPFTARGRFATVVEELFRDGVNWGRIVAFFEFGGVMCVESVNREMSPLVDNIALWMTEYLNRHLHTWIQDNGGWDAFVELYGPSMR

Bcl-xL protein = Bcl-xL protein (Homo sapiens (Human), UniProt Q07817); assay: TR-FRET binding assay, Bcl-xL; conditions: F-Bak peptide probe
Bcl-xL protein, sequence (Q07817 other isoform, or with tags, fused parts or gaps): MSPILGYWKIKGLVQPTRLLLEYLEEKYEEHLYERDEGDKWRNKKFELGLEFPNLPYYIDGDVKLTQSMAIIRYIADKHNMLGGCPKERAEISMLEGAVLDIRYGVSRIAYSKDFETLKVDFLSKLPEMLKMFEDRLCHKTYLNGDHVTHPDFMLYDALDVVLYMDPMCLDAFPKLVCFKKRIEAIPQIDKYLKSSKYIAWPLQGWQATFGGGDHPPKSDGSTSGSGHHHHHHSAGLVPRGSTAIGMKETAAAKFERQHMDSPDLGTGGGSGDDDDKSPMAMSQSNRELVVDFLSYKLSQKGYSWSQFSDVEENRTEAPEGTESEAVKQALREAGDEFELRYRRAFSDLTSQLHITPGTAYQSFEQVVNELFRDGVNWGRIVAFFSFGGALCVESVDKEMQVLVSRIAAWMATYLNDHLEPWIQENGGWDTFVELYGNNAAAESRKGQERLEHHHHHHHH

Molt-4 cells = assay: Cell viability counter screen (CellTiter-Glo) in Molt-4 cells; format: cell-based; conditions: 24 hours, 10% Human Serum
How it was run: (§1)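 3000 cells/well (0.1×10^6/mL) were treated with compound for 24 hours in 5% CO2. Viability read by CellTiter-Glo luminescence; Molt-4 (T-ALL) served as the counter screen to RS4;11 (ALL).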

RS4;11 cells = assay: Cell viability assay (CellTiter-Glo) in RS4;11 cells; format: cell-based; conditions: 24 hours, 10% Human Serum
How it was run: as §1

[2] = IV (1 mg/kg), mouse plasma, individual mouse
[3] = PO (1 mg/kg), mouse plasma, individual mouse

CO[C@@H]1CC[C@@H](CNc2ccc(S(=O)(=O)NC(=O)c3ccc(N4CCN5CC6=C(c7ccc(Cl)cc7)CC(C)(C)C[C@H]6OCCCOC[C@@H]5C4)cc3N3CCCOc4nc5[nH]ccc5cc43)cc2[N+](=O)[O-])OC1 [Example 25, 4-((4aS,10aR)-14-(4-chlorophenyl)-12,12-dimethyl-1,2,4a,5,8,9,10a,11,13,15-decahydro-7H,12H-benzo[f]pyrazino[2,1-c][1,8]dioxa[4]azacycloundecin-3(4H)-yl)-2-(3,4-dihydro-2H-pyrrolo[3′,2′:5,6]pyrido[2,3-b][1,4]oxazepin-1(7H)-yl)-N-((4-((((2S,5R)-5-methoxytetrahydro-2H-pyran-2-yl)methyl)amino)-3-nitrophenyl)sulfonyl)benzamide]
AUC [1, 2]: 11.2 µg·h/mL and 12.9 µg·h/mL
C0 [1, 2]: 5.02 µg/mL and 3.47 µg/mL
CLP [1, 2]: 0.089 L/h/kg
MRT [1, 2]: 9.8 h
VSS [1, 2]: 0.93 L/kg and 0.76 L/kg
Vβ [1, 2]: 0.95 L/kg and 1.0 L/kg and 0.90 L/kg
t1/2 [1, 2]: 7.9 h and 8.1 h
Vβ ([1]; IV (1 mg/kg), mouse plasma, mean): 0.96 L/kg
AUC [1, 3]: 4.33 µg·h/mL and 4.49 µg·h/mL
Cmax [1, 3]: 0.279 µg/mL and 0.274 µg/mL
half-life ([1]; male, iv, IV (1 mg/kg), individual mouse): 10 h
half-life ([1]; male, po, PO (1 mg/kg), harmonic mean): 8.7 h
half-life ([1]; male, po, PO (1 mg/kg), individual mouse): 8.7 h
MRT ([1]; male, CD-1, IV (1 mg/kg), mouse plasma, individual mouse, read-out: MRT): 10 h
clearance ([1]; male, CD-1, IV (1 mg/kg), mouse plasma, mean, read-out: CLP (converted)): 0.077 L/h/kg
Tmax ([1]; male, CD-1, PO (1 mg/kg), mouse plasma, individual mouse): 4 h
Ki (Bcl-2 protein): 0.273 nM
Ki (Bcl-xL protein): 13.6 nM

CC1(C)CC(c2ccc(Cl)cc2)=C2CN3CCN(c4ccc(C(=O)NS(=O)(=O)c5ccc(NC[C@H]6CC[C@@](C)(O)CC6)c([N+](=O)[O-])c5)c(N5CCCOc6nc7[nH]ccc7cc65)c4)C[C@H]3COCCCO[C@@H]2C1 [Example 36, 4-((4aS,10aR)-14-(4-chlorophenyl)-12,12-dimethyl-1,2,4a,5,8,9,10a,11,13,15-decahydro-7H,12H-benzo[f]pyrazino[2,1-c][1,8]dioxa[4]azacycloundecin-3(4H)-yl)-2-(3,4-dihydro-2H-pyrrolo[3′,2′:5,6]pyrido[2,3-b][1,4]oxazepin-1(7H)-yl)-N-((4-((((1s,4s)-4-hydroxy-4-methylcyclohexyl)methyl)amino)-3-nitrophenyl)sulfonyl)benzamide]
Ki (Bcl-2 protein): 0.0607 nM
EC50 (Molt-4 cells): 117 nM
EC50 (RS4;11 cells): 1.47 nM
Ki (Bcl-xL protein): 11.1 nM

CC1(C)CC(c2ccc(Cl)cc2)=C2CN3CCN(c4ccc(C(=O)NS(=O)(=O)c5ccc(NC[C@H]6CC[C@H](N7CCOCC7)CO6)c([N+](=O)[O-])c5)c(N5CCCOc6nc7[nH]ccc7cc65)c4)C[C@H]3COCCCO[C@@H]2C1 [Example 37, 4-((4aS,10aR)-14-(4-chlorophenyl)-12,12-dimethyl-1,2,4a,5,8,9,10a,11,13,15-decahydro-7H,12H-benzo[f]pyrazino[2,1-c][1,8]dioxa[4]azacycloundecin-3(4H)-yl)-2-(3,4-dihydro-2H-pyrrolo[3′,2′:5,6]pyrido[2,3-b][1,4]oxazepin-1(7H)-yl)-N-((4-((((2R,5S)-5-morpholinotetrahydro-2H-pyran-2-yl)methyl)amino)-3-nitrophenyl)sulfonyl)benzamide]
Ki (Bcl-2 protein): 0.109 nM
EC50 (Molt-4 cells): 1450 nM
EC50 (RS4;11 cells): 1.05 nM
Ki (Bcl-xL protein): 4.61 nM

CC1(C)CC(c2ccc(Cl)cc2)=C2CN3CCN(c4ccc(C(=O)NS(=O)(=O)c5ccc(NCC6(F)CCN(C7COC7)CC6)c([N+](=O)[O-])c5)c(N5CCCOc6nc7[nH]ccc7cc65)c4)C[C@H]3COCCCO[C@@H]2C1 [Example 39, 4-((4aS,10aR)-14-(4-chlorophenyl)-12,12-dimethyl-1,2,4a,5,8,9,10a,11,13,15-decahydro-7H,12H-benzo[f]pyrazino[2,1-c][1,8]dioxa[4]azacycloundecin-3(4H)-yl)-2-(3,4-dihydro-2H-pyrrolo[3′,2′:5,6]pyrido[2,3-b][1,4]oxazepin-1(7H)-yl)-N-((4-(((4-fluoro-1-(oxetan-3-yl)piperidin-4-yl)methyl)amino)-3-nitrophenyl)sulfonyl)benzamide]
Ki (Bcl-2 protein): 0.194 nM
EC50 (Molt-4 cells): 453 nM
EC50 (RS4;11 cells): 1.66 nM
Ki (Bcl-xL protein): 5.25 nM

CO[C@H]1C[C@H](CNc2ccc(S(=O)(=O)NC(=O)c3ccc(N4CCN5CC6=C(c7ccc(Cl)cc7)CC(C)(C)C[C@H]6OCCCOC[C@@H]5C4)cc3N3CCCOc4nc5[nH]ccc5cc43)cc2[N+](=O)[O-])C1 [Example 41, 4-((4aS,10aR)-14-(4-chlorophenyl)-12,12-dimethyl-1,2,4a,5,8,9,10a,11,13,15-decahydro-7H,12H-benzo[f]pyrazino[2,1-c][1,8]dioxa[4]azacycloundecin-3(4H)-yl)-2-(3,4-dihydro-2H-pyrrolo[3′,2′:5,6]pyrido[2,3-b][1,4]oxazepin-1(7H)-yl)-N-((4-((((1r,3r)-3-methoxycyclobutyl)methyl)amino)-3-nitrophenyl)sulfonyl)benzamide]
Ki (Bcl-2 protein): 0.224 nM
EC50 (Molt-4 cells): > 10000 nM
EC50 (RS4;11 cells): 3.93 nM
Ki (Bcl-xL protein): 25.2 nM

CC1(C)CC(c2ccc(Cl)cc2)=C2CN3CCN(c4ccc(C(=O)NS(=O)(=O)c5ccc(OCC6CCOCC6)c([N+](=O)[O-])c5)c(N5CCCOc6nc7[nH]ccc7cc65)c4)C[C@H]3COCCCO[C@@H]2C1 [Example 46, 4-((4aS,10aR)-14-(4-chlorophenyl)-12,12-dimethyl-1,2,4a,5,8,9,10a,11,13,15-decahydro-7H,12H-benzo[f]pyrazino[2,1-c][1,8]dioxa[4]azacycloundecin-3(4H)-yl)-2-(3,4-dihydro-2H-pyrrolo[3′,2′:5,6]pyrido[2,3-b][1,4]oxazepin-1(7H)-yl)-N-((3-nitro-4-((tetrahydro-2H-pyran-4-yl)methoxy)phenyl)sulfonyl)benzamide]
Ki (Bcl-2 protein): 0.202 nM
EC50 (Molt-4 cells): > 10000 nM
EC50 (RS4;11 cells): 9.36 nM
Ki (Bcl-xL protein): 21.7 nM

Source: patent US20250066388A1, “1,3,4,7-TETRAHYDRO-2H-PYRROLO[3',2':5,6]PYRIDO[2,3-B][1,4]OXAZEPINE BCL-2 INHIBITORS” (AbbVie Inc., priority 2022, published 2025)
